Experimental data reported in US11230711B2, “Inhibition of LET7I as a means to enhance the protective effect of progesterone against stroke” (UNIVERSITY OF NORTH TEXAS HEALTH SCIENCE CENTER, priority 2017, dated 2022).

Tested on: C57BL/6J mice
Assay: Ischemic lesion / infarct size by TTC staining after middle cerebral artery occlusion (MCAo)
Format: in vivo, mouse
Excerpt: Mice will receive bilateral ovariectomy (OVX) using a dorsal approach under isoflurane anesthesia. A small cut is made through skin and abdominal muscles in left and right lateral abdomen. The arteries to left and right ovaries will be ligated, and ovaries will be cut. The muscles and skin will be sutured with 4-0 Vicryl absorbable suture.
Fused steroid pellets will be made using the flash-melt method described by Ratka and Simpkins. The pellets (containing P4 or control) will be implanted subcutaneously into abdominal area.
MCAo will be used to induce transient focal cerebral ischemia (as previously described). Briefly, under isoflurane anesthesia, a mid line incision will be made on the neck. Common carotid artery (CCA), external carotid artery (ECA) and internal carotid artery (ICA) will be dissected from the connective tissue. A silicon coated 6-0 nylon monofilament will be inserted into the left ECA and advanced till it occludes the origin of MCA. The MCA will be occluded for 60 minutes and then reperfusion attained by withdrawing the suture.
ICV injections will be performed as described by Sananbenesi et al.. In brief, mice will be anaesthetized and affixed with a cannula ipsilateral to the side of surgery (coordinates from Bregma: AP1/4_0.4 mm, L1/4_1.15 mm, V1/4_2.0 mm). […]

With `CC(=O)[C@H]1CC[C@H]2[C@@H]3CCC4=CC(=O)CC[C@]4(C)[C@H]3CC[C@]12C` [P4, progesterone] the “stroke-induced lesion size (ischemic injury), TTC stain” value (Example 1, MCAo mice, P4 pellet, ICV Let-7i antagomir, FIG. 6) was “no statistically significant effect” and the “relative infarct size (ischemic injury), TTC staining” value (Example 2, 24 h after MCAo, vs cholesterol+scrambled, FIG. 12B) was “did not”.
